One assay deals with OVCAR-3. The assay is described as follows: Cytotoxicity in OVCAR-3 ovarian cancer cells. The class given is cell-based. The following applies: OVCAR-3 ovarian cancer cell line; read-out: IC50 in Human Cancer Cell Lines. As to the method:
MDA-MB-435S.luc cells were grown in Leibovitz's L 15 medium, 10% fetal bovine serum, 0.01 mg/ml bovine insulin, 100 IU/ml penicillin, 100 microg/ml streptomycin. The cells were cultured in tight closed flasks. The incubations were conducted using 96 well plates at 10,000 cells per well. Cells were typically seeded into 96 well plates and media was replaced after 48 hours of incubation. Each assay was conducted at increasing concentrations of 0, 0.001, 0.01, 0.05, 0.1, 0.5, 1, 2, 5, 10 and 100 micromolar doses of lytic peptide-binding domain conjugate. Each lytic peptide-binding domain conjugate provided in lyophilized form and was freshly dissolved in saline and added to cells. The duration of incubation was typically 24 h, and cell viability assays were conducted using formazan conversion assays (MTT assay). Controls contained saline or 0.1% triton as reference for 0 and 100% cell death, respectively.
To ascertain the IC50 of various fusion constructs on different human cancer cell lines compared to cisplatinum, IC50 of fusion constructs were evaluated as in Table 3.

The test system of another assay is MDA-MB-435S xenograft. Nature of the assay: MDA-MB-435S xenograft, kinetics after a single injection. The following applies: 0.2 and 2 mg/kg. It is filed as in vivo, Nu/Nu mice. As to the method:
In brief, Nu/Nu female mice, outbred strain, age 5 weeks (Charles River), were injected (s.c.) into the interscapular region with a MDA-MB-435S (passage #249)/Matrigel suspension (2.4×10^6 cells/mouse) as described in Example 10. Phor 18-LHRH (338613) (ID: 338613 lot #P080401) (0.2, and 2 mg/kg) were reconstituted in USP saline prior to dosing. The doses were given as a single bolus intravenous injection via lateral tail vein.
Mice were sacrificed 1, 2 and 16 hours after treatment with Phor 18-LHRH (338613) or saline. At study endpoint body weight, tumor weights were determined, and tumors were fixed in phosphate buffered 10% formalin.

The next assay concerns IF5. The assay is described as follows: Cytotoxicity in IF5 murine ovarian cancer cells (24 h). It is filed as cell-based. The following applies: IF5, 24 h; read-out: In vitro activity (IC50). On the procedure:
Murine ovarian cancer cell lines (ID8, IG10, IF5, and 2Cl2) were grown in RPMI 1640 media with 10% Fetal Bovine Serum. Cells were typically seeded (3000 cells per well) into 96 well plates and media was replaced after 48 hours of incubation. […] Phor18-LHRH was provided in lyophilized form was dissolved in saline and added to cells. The duration of incubation was 24 h at 37° C. Cell viability was assessed after 24 hours using a luminometric assays (Promega, CellTiter-0Glo 2.0, G9243). Controls contained saline or 0.1% triton as reference for 0 and 100% cell death, respectively.
Data were processed and analyzed using GraphPad Prism version 7.00 for Windows (GraphPad Software, San Diego California). Statistical analysis for significance was determined by a two-tailed Student's T-test. Each study was conducted to achieve an […] of at least 6.
In vitro activities were expressed as IC50 values for each cell line, time point and compound tested that were calculated using the Hill equation (Graph Pad Prizm software).

The next assay concerns PD-L1. The assay is described as follows: PD-L1 expression in ID8 and IG10 cells after EP-100 (RT-PCR, Western blot). The class given is cell-based, murine. On the procedure:
To determine the potential role of EP-100 in immune activation, the effect on PD-L1 expression in murine ovarian cancer cells was determined in the presence of EP-100. […] PD-L1 mRNA was increased with treatment with as low as 0.5 μm EP-100 for 4 hours, and PD- L1 protein was increased after 6 hours of treatment.
(A western blot detects proteins with antibodies after separation by electrophoresis.)

Assay [1] relates to ID8 murine ovarian carcinoma. Nature of the assay: Orthotopic ID8 murine ovarian carcinoma syngeneic model. It is filed as in vivo, C57BL/6 mice. On the procedure:
Ovarian Cancer Orthotopic Syngeneic Mouse model—Eight-to 12-week-old female C57BL/6 mice were purchased from Taconic Farms, ID8 or IG10 cells at a concentration off 2×10^6 cells/0.2 mL per mouse were injected into the intraperitoneal cavity of C57BL/6. All mouse studies were approved by the Institutional Animal Care and Use Committee and were cared for in accordance with guidelines set forth by the American Association for Accreditation of Laboratory Animals. After cancer cell injection, mice were randomly divided into four treatment groups: 1) untreated control, 2) PD-L1 antibody (200 μg/kg intraperitoneally twice a week), 3) EP-100 (0.2 mg/kg intravenously twice a week) and 4) PD-L1 antibody plus EP-100. Treatment was initiated ten days after cancer cell injection into the intraperitoneal cavity.
C57BL/6 female mice were injected orthotopically with luciferase labeled ID8 (ID8-L) murine ovarian cancer cell line (1×10^6 cells). Mice were monitored for tumor take using a luminescent imaging system. Treatments started on day 7 after tumor cell injection and continued on days 9, 12, 16, 19, 22, and 26 (FIG. 17A). […] Each treatment and control group consisted of 10 mice. At necropsy on day 28, ascites fluids were removed and measured, and tumors were removed and weighed.
Significance between treatment groups was assessed using Wilcoxon signed Rank test analysis and ANOVA.

Another assay deals with immune cells in tumor. Nature of the assay: Immune cell profiling (FACS) of ID8 tumors. The class given is in vivo, C57BL/6 mice. On the procedure: Immune Profiling Assay—Immunophenotypic analyses of splenocytes and single cell suspensions from tumors were assessed by flow cytometry. Abs to stain for MDSCs were CD11b-APC (clone M1/70; BD Biosciences), Ly6G-FITC (clone 1A8; BD Biosciences) and Ly6C-PE (clone AL-21; BD Biosciences). For T-cell activation markers, cells were stained with Ab specific for CD4-PE-Cy7 (clone RM4-5; BD Biosciences), CD8-PE-Cy7 (clone 53-6.7; BD Biosciences), CD62L-PE (clone MEL-14; BD Biosciences) and CD44-FITC (clone IM7; Biolegend). Cells were incubated on ice for 30 min, washed and fixed in phosphate buffered saline (PBS) containing 1% formalin for flow cytometric analysis on an LSRII flow cytometer (BD Biosciences).
Immune cell profiling was conducted on ascites (N=3) and tumor tissue (N=3) by processing the samples by the following method and analyzed through Fluorescent Activated Cell Sorting (FACS), see Table 8. Cells were incubated for 30 minutes on ice, washed and fixed in phosphate buffered saline containing 1% formalin for flow cytometric analysis on an LSRII flow cytometer.

A further assay deals with CD8+ T cells. Nature of the assay: T cell activation by condition media from EP-100-treated ID8 cells. The class given is cell-based, mouse. The following applies: cells treated with condition media (CM) from EP-100-treated cells; controls 12.3±1.1, p=0.04.

The IC50 is the concentration that inhibits the measured activity by half.

For the sequence “KFAKFAKKFAKFAKKFAKQHWSYGLRPG [Phor18-LHRH]”, the IC50 in the assay on OVCAR-3 was determined as 3000 nM. In addition, the “time to destruction of tumors after injection” value with MDA-MB-435S xenograft was 1 h. Besides, the IC50 in the assay on IF5 was 1010 nM. Also, the “lowest concentration increasing PD-L1 mRNA” value in the assay on PD-L1 (4 hours) was 0.5 μm. In addition, the “PD-L1 mRNA and protein levels” value in the assay with PD-L1 (ID8 and IG10 cells, protein after 6 hours) is “both PD-L1 mRNA and protein levels were increased”. Also, in assay [1] (ID8), the reduction of ascites amounted to 1.5 fold, the “reduction of live tumor size” value was determined as 2.1 fold, the “reduction of tumor weights” value was 3 fold and the “relative reduction of ascites volumes” value is 35.5%. In addition, in assay [1] (ID8-luciferase, mean±SD, start 9.2±1.2×10^4), the “luminescence counts of tumor at the end of the study” value is 88.6±21.5 ×10^4. Moreover, in assay [1] (ID8, Mean±SEM, N=10, controls 1.06±0.08 g), the “tumor weights at necropsy” value is 0.49 ± 0.07 g. The sequence also returned an ascites volumes in assay [1] (ID8, Mean±SEM, N=10, vehicle 12.26±0.6 ml) of 8.0 ± 0.7 mL. Moreover, in the assay with immune cells in tumor (tumor (tumor and ascites)), the “increase of CD8+ T/Treg ratio” value is 8 fold. Also, the “Regulatory T cells (Treg)” value in the assay on immune cells in tumor (tumor, % of CD45+ cells, controls 1.14±0.09%) is given as 0.95±0.15%. In the assay with immune cells in tumor (tumor, % of CD45+ cells, controls 1.5±0.006%), the “Monocytic myeloid suppressor cells (mMDSC)” value was 1.015±0.15%. In the assay on immune cells in tumor (tumor, % of CD45+ cells, controls 1.6±0.05%), this sequence yielded a Macrophages of 10.1±0.13%. Also, in the assay with immune cells in tumor (tumor, % of CD45+ cells, controls 1.88±0.03%), the “Dendritic cells (DC)” value turned out to be 5.12±0.34%. Moreover, the “CD8+ T cells” value in the assay with immune cells in tumor (tumor, % of CD45+ cells, controls 2.6±0.4%) is listed as 15.5±0.8%. Further, in the assay with immune cells in tumor (tumor, % of CD45+ cells, controls 3.76±[…]), the “Natural killer (NK) cells” value was 10.67±1.4%. Besides, the B cells in the assay on immune cells in tumor (tumor, % of CD45+ cells, controls 12.14±0.9%) is 10.1±2.4%. Besides, the “CD45+ cell fraction of live cells” value with immune cells in tumor (tumor, Mean±SEM, controls 8.16±[…]) is 26.1±5.2%. In addition, in the assay on immune cells in tumor (tumor, controls 2.27±0.26), the “ratio of CD8+ T cells to regulatory T cells” value was found to be 15.5±2.5. Further, in the assay on CD8+ T cells, the “proportion of CD8+ T cells” value worked out at 17.3±1.1.

For the origin of these results see patent US20240228542A1, “LYTIC DOMAIN FUSION CONSTRUCTS, CHECKPOINT INHIBITORS, AND METHODS OF MAKING AND USING SAME” (A28 Therapeutics Inc., priority 2020, published 2024).
